Data published in patent US8138170B2, “Immunosuppressive Ningalin compounds” (Memorial Sloan-Kettering Cancer Center, priority 2004, dated 2012).
Several values for one entry are separate records, joined by “and”; a condition that tells them apart may be missing. Identical values can stand only once. Like-named read-outs stand apart in the source and are kept apart here.

How the values were obtained:
[1] = system: P388/DX leukemic cells resistant to Adriamycin; details: for Log cell kill: calculated assuming doubling time 0.4 day
[2] = system: carrageenan-induced paw edema; assay: Carrageenan-induced paw edema; type: in vivo, B6D2F1 mice; details: for Pedis Area: individual mice 1-4; for Pedis Area, Mean: mean of 4 mice
Procedure: Carrageene (1%, 30 μl) was injected i.m. into the pedis of B6D2F1 mice (4 mice/group) to induced edemic inflammation at 0 hours. N3, N5 (i.p. injection) or oral administration of aspirin 500 mg/kg, or topical application of hydrocortisone cream (1%) or Lidex cream (0.05%) to the pedis skins were given at −1, 6, 12 and 24 hours. The control mice received dimethylsulfoxide (the vehicle of ningalins). The pedis areas (in mm^2) were measured at 0, 3, 6, 12, 24, 36 and 48 hours.

human lymphocytes = assay: Inhibition of PHA-stimulated lymphocyte proliferation ([3H]thymidine incorporation); type: cell-based; details: for IC50: read-out: Immunosuppressive Effect (IC50 in μM) [B]
[3] = Cytotoxicity measured by cell proliferation inhibition; type: cell-based
C57BL/6 heart allografts = assay: Heterotopic heart transplantation in mice; type: in vivo, Balb/c mice
Procedure: Heterotopic heart transplantation was performed in rats and mice. In brief, heart transplantation was performed by previously described modified method. Hearts harvested from donors were perfused with chilled saline and immediately transplanted to recipients under full anesthesia. Suture 10-0 in rats and 12-0 in mice (Ethicon; Somerville, N.J.) was used to perform anastomosis of aorta to aorta and pulmonary artery to vena cava. Heartbeat was evaluated daily and the day of complete cessation was considered rejection. Animals that died within three days after transplantation were excluded from the analysis (less than 5%).
Mice were also transplanted with heart allografts. In particular, untreated Balb/c (H-2^d) recipients rejected C57BL/6 (H-2^b) heart allografts at a MST of 7.8±0.84 days (n=5). Treatment with 40 mg/kg N5, QDx7, extended heart allograft survival to 13.33±2.52 days, which increased life span 71% (n=3; p<0.03).
Mice heart allografts were treated with 20 mg/kg of N3, QDx7, i.p. In particular, untreated Balb/c (H-2^d) recipients rejected C57BL/6 ([…]) heart allografts at a MST of […] days (n=5). Treatment with 20 mg/kg of N3 (i.e., one-half of dose of N5) extended heart allograft survival to 18.75±3.86 days (n=4; p<0.0005), an increase in lifespan of 140%.

P388/DX leukemic cells = type: in vivo, B6D2F1 mice; details: for Log cell kill: calculated assuming doubling time 0.4 day
[4] = Adriamycin 3.0 mg/kg iv alone or with N3 20 mg/kg ip, QD × 3
[5] = N3 20 mg/kg ip and/or Adriamycin 1.5 mg/kg iv, QD × 3
[6] = 0 hr, aspirin 500 mg/kg oral, N3 100 mg/kg i.p., N5 50 mg/kg i.p., hydrocortisone cream 1%, Lidex cream 0.05% topical, given at −1, 6, 12, 24 hours
[7] = PHA-stimulated human lymphocyte proliferation
[8] = N3 20 mg/kg ip and/or Taxol 5.0 mg/kg iv, QD × 3
[9] = Taxol 10.0 mg/kg iv alone or with N3 20 mg/kg ip, QD × 3

| Structure (SMILES) | Lifespan increase (%) [1, 5] | Median survival time (days ± SD) [1, 5] [days] | Pedis Area [2, 6] [mm^2] | Pedis Area, Mean ([2]; 0 hr, doses as E35) [mm^2] | Pedis Area ([2]; 3 hr, doses as E35) | Pedis Area, Mean ([2]; 3 hr, doses as E35) [mm^2] | Pedis Area ([2]; 6 hr, doses as E35) | Pedis Area, Mean ([2]; 6 hr, doses as E35) [mm^2] | Pedis Area ([2]; 12 hr, doses as E35) | Pedis Area, Mean ([2]; 12 hr, doses as E35) [mm^2] | Pedis Area ([2]; 24 hr, doses as E35) | Pedis Area, Mean ([2]; 24 hr, doses as E35) [mm^2] | Pedis Area ([2]; 36 hr, doses as E35) | Pedis Area, Mean ([2]; 36 hr, doses as E35) [mm^2] | Pedis Area ([2]; 48 hr, doses as E35) | Pedis Area, Mean ([2]; 48 hr, doses as E35) [mm^2] | IC50 (human lymphocytes; [7]) [µM] | IC50 [3] [µM] | Lifespan increase (%) (P388/DX leukemic cells; [8]) | Median survival time (days ± SD) (P388/DX leukemic cells; [8]) [days] | other results |
| --- | --- | --- | --- | --- | --- | --- | --- | --- | --- | --- | --- | --- | --- | --- | --- | --- | --- | --- | --- | --- | --- |
| COc1cccc2c1C(=O)c1c(O)c3c(c(O)c1C2=O)C[C@@](O)(C(=O)CO)C[C@@H]3O[C@H]1C[C@H](N)[C@H](O)[C@H](C)O1 [Adriamycin, Doxorubicin] | +7% | 11.25 ± 1.75 |  |  |  |  |  |  |  |  |  |  |  |  |  |  |  |  |  |  | Log cell kill ([1]; Adriamycin 1.5 mg/kg iv alone or with N3 20 mg/kg ip): 0.56; Lifespan increase (%) [1, 4]: +15%; Lifespan increase (days) [1, 4]: +1.58 days; Median survival time (days ± SD) [1, 4]: 12.08 ± 1.81 days; Log cell kill ([1]; Adriamycin 3.0 mg/kg iv alone or with N3 20 mg/kg ip): 1.19; Lifespan increase (days) [1, 5]: +0.75 days |
| CC(=O)Oc1ccccc1C(=O)O [Aspirin, aspirin, reference compound] |  |  | 100 | 100 | 142.2 mm^2 and 130.5 mm^2 and 122 mm^2 and 134.5 mm^2 | 132.3 | 151.4 mm^2 and 139.8 mm^2 and 124.6 mm^2 and 149.6 mm^2 | 141.4 | 138.5 mm^2 and 135.6 mm^2 and 120.3 mm^2 and 138.9 mm^2 | 133.3 | 116.5 mm^2 and 116.9 mm^2 and 108.5 mm^2 and 118.6 mm^2 | 115.1 | 114.7 mm^2 and 107.6 mm^2 and 94.1 mm^2 and 109.7 mm^2 | 106.5 | 118.3 mm^2 and 105.9 mm^2 and 92.4 mm^2 and 111.5 mm^2 | 107 |  |  |  |  |  |
| COc1ccc(CCN(C)CCCC(C#N)(c2ccc(OC)c(OC)c2)C(C)C)cc1OC (centres unmarked) [Verapamil, reference compound] |  |  |  |  |  |  |  |  |  |  |  |  |  |  |  |  |  |  |  |  | IC50 (human lymphocytes; Homo sapiens, Lymphocyte): 6.9 ± 1.01 µM |
| COC(=O)c1c(-c2cc(OC)c(OC)c(OC)c2)c(-c2cc(OC)c(OC)c(OC)c2)c(C(=O)OC)n1CCc1ccc(OC)cc1 [Ningalin N6, 1-[2-(4-Methoxy-phenyl)-ethyl]-3,4-bis-(3,4,5-trimethoxy-phenyl)-1H-pyrrole-2,5-dicarboxylic acid dimethyl ester] |  |  |  |  |  |  |  |  |  |  |  |  |  |  |  |  | 1.61 ± 0.31 | 70.2 ± 20.5 |  |  | Selectivity Ratio [A]/[B] (human lymphocytes; cytotoxicity IC50 / immunosuppressive IC50): 43.6 |
| COc1ccc(CCn2cc(-c3ccc(OC)c(OC)c3)c3c4cc(OC)c(OC)cc4oc(=O)c32)cc1OC [Ningalin N3, 1-(3,4-Dimethoxy-phenyl)-3-[2-(3,4-dimethoxy-phenyl)-ethyl]-7,8-dimethoxy-3H-5-oxa-3-aza-cyclopenta[α]naphthalen-4-one] | −12% | 9.25 ± 0.66 | 100 | 100 | 134.4 mm^2 and 142.7 mm^2 and 141.7 mm^2 and 139.5 mm^2 | 139.6 | 140.6 mm^2 and 159.2 mm^2 and 153.4 mm^2 and 151.8 mm^2 | 151.3 | 140.6 mm^2 and 150.5 mm^2 and 139.8 mm^2 and 135.1 mm^2 | 141.5 | 134.4 mm^2 and 142.7 mm^2 and 136.9 mm^2 and 128.1 mm^2 | 135.5 | 131.1 mm^2 and 136.9 mm^2 and 121.9 mm^2 and 127.9 mm^2 | 129.5 | 131.1 mm^2 and 136.9 mm^2 and 115.8 mm^2 and 126 mm^2 | 127.5 | 0.51 ± 0.19 | 51.3 ± 18 | −13% | 8.00 ± 0.54 | MST ± SD days (heart allograft survival) (C57BL/6 heart allografts; B6 heart to Balb/c, N3 20 mg/kg QDx7 i.p., 20 mg/kg): 18.75±3.86 days; increase in lifespan (C57BL/6 heart allografts; heart allograft, N3 20 mg/kg QDx7 i.p., vs untreated): 140%; Survival days (individual animals) (C57BL/6 heart allografts; heart, N3 20 mg/kg, 20 mg/kg): 19 days and 24 days and 15 days and 17 days; anti-inflammatory effect (FIG. 3) ([2]; N5 50 mg/kg i.p., N3 100 mg/kg i.p., all drugs: at 12-48 hours): produced an anti-inflammatory effect; lifespan of tumor bearing mice compared to saline treated controls (P388/DX leukemic cells; N3 20 mg/kg i.p. daily for three days): decreased the lifespan; Lifespan increase (P388/DX leukemic cells; [8]): -1.19 days; Lifespan increase [1, 5]: -1.25 days; decreased the lifespan ([1]; N3 alone 20 mg/kg i.p. daily for three days, vs control): 12% |
| CC(=O)O[C@H]1C(=O)[C@@]2(C)[C@H]([C@H](OC(=O)c3ccccc3)[C@]3(O)C[C@H](OC(=O)[C@H](O)[C@@H](NC(=O)c4ccccc4)c4ccccc4)C(C)=C1C3(C)C)[C@]1(OC(C)=O)CO[C@@H]1C[C@@H]2O [Taxol, paclitaxel] |  |  |  |  |  |  |  |  |  |  |  |  |  |  |  |  |  |  | +4% | 9.56 ± 0.62 | Lifespan increase (days) (P388/DX leukemic cells; [8]): +0.37 days; Log cell kill (P388/DX leukemic cells; Taxol 5.0 mg/kg iv alone or with N3 20 mg/kg ip): 0.28; Lifespan increase (%) (P388/DX leukemic cells; [9]): +4%; Lifespan increase (days) (P388/DX leukemic cells; [9]): +0.37 days; Median survival time (days ± SD) (P388/DX leukemic cells; [9]): 9.56 ± 0.88 days; Log cell kill (P388/DX leukemic cells; Taxol 10.0 mg/kg iv alone or with N3 20 mg/kg ip): 0.28 |
